From paper PMC12396409, “Screening and hit evaluation of a microbial metabolite library against the pathogenic Plasmodium falciparum and Toxoplasma gondii parasites” (International Journal for Parasitology: Drugs and Drug …, 2025)
Read-outs that look alike come from different tables or passages of the source.

Key:
[1] = test system: T. gondii RH strain (RH-Tub-eYFP) tachyzoites; test: microbe, parasite or virus in culture; format: cell-based, Toxoplasma gondii; conditions: 72 h; for Tg_72h_%Growth_Rep1: replicate 1; for Tg_72h_%Growth_Rep2: replicate 2; for percent parasite growth at 2 µg/mL: Toxoplasma gondii
[2] = test system: P. falciparum 3D7 parasites; test: P. falciparum growth inhibition assay, 1-cycle (72 h treatment), SYBR DNA staining (library screen at 2 μg/mL and dose-response); format: cell-based, Plasmodium falciparum; conditions: for activity at 2 µg/mL: Plasmodium falciparum, 3D7
[3] = test system: P. falciparum 3D7 parasites; test: P. falciparum growth inhibition assay, 2-cycle (120 h treatment), delayed-death screen and dose-response; format: cell-based, Plasmodium falciparum; conditions: for activity at 2 µg/mL: Plasmodium falciparum, 3D7
[4] = library screen at 2 μg/mL, % growth
[5] = library screen at 2 μg/mL, 72 h, % growth, replicate 1
[6] = library screen at 2 μg/mL, 72 h, % growth, replicate 2
[7] = library screen at 2 μg/mL, 120 h, % growth, replicate 1
[8] = library screen at 2 μg/mL, 120 h, % growth, replicate 2
[9] = T. gondii, parasite screen 2 μg/mL, % growth
[10] = T. gondii, parasite screen at 2 μg/mL, % growth

| SMILES | Tg_72h_%Growth_Rep1 [1, 4] [%] | Tg_72h_%Growth_Rep2 [1, 4] [%] | Pf_72h_%Growth_Rep1 [2, 5] [%] | Pf_72h_%Growth_Rep2 [2, 6] [%] | Pf_120h_%Growth_Rep1 [3, 7] [%] | Pf_120h_%Growth_Rep2 [3, 8] [%] | also measured |
| --- | --- | --- | --- | --- | --- | --- | --- |
| CC(C)C[C@H]1C(=O)O[C@H](C(C)C)C(=O)N(C)[C@@H](CC(C)C)C(=O)O[C@H](C(C)C)C(=O)N(C)[C@@H](CC(C)C)C(=O)O[C@H](C(C)C)C(=O)N(C)[C@@H](CC(C)C)C(=O)O[C@H](C(C)C)C(=O)N1C [Bassianolide] | 78.43 | 93.64 | 6.97 | 5.23 | 10.85 | -3.01 |  |
| CC1(O)Cc2oc3cc(O)c(O)c(C(=O)O)c3c(=O)c2CO1 (stereo not drawn) [Fulvic acid] | 149.83 | 113.67 | 84.86 | 84.76 | 105.15 | 98.61 |  |
| COC1=C(OC)C(=O)C(C)=CC1=O [Fumigatin methylether] | 59.41 | 97.15 | 10.44 | 11.19 | 25.98 | 27.21 |  |
| C[C@H]1[C@H](C)CC[C@]2(C(=O)O)CC[C@]3(C)C(=CC[C@@H]4[C@@]5(C)CC[C@H](O)C(C)(C)[C@@H]5CC[C@]43C)[C@H]12 [Ursolic acid] |  |  |  |  |  |  | percent parasite growth at 2 µg/mL ([1]; read-out: Tg_72h_%Growth_Rep1): 96%; percent parasite growth at 2 µg/mL ([1]; read-out: Tg_72h_%Growth_Rep2): 92.8%; activity at 2 µg/mL ([2]; P. falciparum, 72 h, screen at 2 μg/mL, replicate 1, read-out: Pf_72h_%Growth_Rep1): 77.7%; activity at 2 µg/mL ([2]; P. falciparum, 72 h, screen at 2 μg/mL, replicate 2, read-out: Pf_72h_%Growth_Rep2): 84%; activity at 2 µg/mL ([3]; P. falciparum, 120 h, screen at 2 μg/mL, replicate 1, read-out: Pf_120h_%Growth_Rep1): 155%; activity at 2 µg/mL ([3]; P. falciparum, 120 h, screen at 2 μg/mL, replicate 2, read-out: Pf_120h_%Growth_Rep2): 79.7% |
| C/C=C/[C@@H]1C=C[C@@H]2C[C@H](C)CC[C@H]2[C@]1(C)/C(O)=C1/C(=O)[C@@H](CO)N(C)C1=O [Epiequisetin] | 129.84 | 98.00 | 86.43 | 84.23 | 86.15 | 82.07 |  |
| C=C1CC[C@H](OC(C)=O)C(C)(C)[C@@H]1CC/C(C)=C/CC/C(C)=C/Cc1c(O)cc(C)oc1=O [Sartorypyrone A] |  |  |  |  |  |  | Tg_72h_%Growth_Rep1 [1, 9]: 82.97%; Tg_72h_%Growth_Rep2 [1, 9]: 82.11%; Pf_72h_%Growth_Rep1 ([2]; P. falciparum, 72 h, parasite screen 2 μg/mL, % growth, replicate 1): 32.17%; Pf_72h_%Growth_Rep2 ([2]; P. falciparum, 72 h, parasite screen 2 μg/mL, % growth, replicate 2): 81.37%; Pf_120h_%Growth_Rep1 ([3]; P. falciparum, 120 h, parasite screen 2 μg/mL, % growth, replicate 1): 16.39%; Pf_120h_%Growth_Rep2 ([3]; P. falciparum, 120 h, parasite screen 2 μg/mL, % growth, replicate 2): 52.54% |
| CC(C)C(=O)N[C@H](CO)[C@H](O)c1ccc([N+](=O)[O-])cc1 [Corynecin III] |  |  |  |  |  |  | Tg_72h_%Growth_Rep1 ([1]; T. gondii, screen at 2 μg/mL): 93.46%; Tg_72h_%Growth_Rep2 ([1]; T. gondii, screen at 2 μg/mL): 102.63%; Pf_72h_%Growth_Rep1 ([2]; P. falciparum, 72 h, screen at 2 μg/mL, replicate 1): 86.99%; Pf_72h_%Growth_Rep2 ([2]; P. falciparum, 72 h, screen at 2 μg/mL, replicate 2): 97.15%; Pf_120h_%Growth_Rep1 ([3]; P. falciparum, 120 h, screen at 2 μg/mL, replicate 1): 87.60%; Pf_120h_%Growth_Rep2 ([3]; P. falciparum, 120 h, screen at 2 μg/mL, replicate 2): 90.07% |
| CCC1OC2(CCC1C)CC1CC(CC=C(C)CC(C)C=CC=C3COC4C(O)C(C)=CC(C(=O)O1)C34O)O2 (stereo not drawn) [BIA-M1052] |  |  |  |  |  |  | Tg_72h_%Growth_Rep1 [1, 10]: 117.80%; Tg_72h_%Growth_Rep2 [1, 10]: 80.70%; Pf_72h_%Growth_Rep1 ([2]; P. falciparum 3D7, 72 h, parasite screen at 2 μg/mL, % growth, replicate 1): 59.66%; Pf_72h_%Growth_Rep2 ([2]; P. falciparum 3D7, 72 h, parasite screen at 2 μg/mL, % growth, replicate 2): 59.04%; Pf_120h_%Growth_Rep1 ([3]; P. falciparum 3D7, 120 h, parasite screen at 2 μg/mL, % growth, replicate 1): 32.48%; Pf_120h_%Growth_Rep2 ([3]; P. falciparum 3D7, 120 h, parasite screen at 2 μg/mL, % growth, replicate 2): 50.00% |
| CO[C@H]1/C=C/C=C/C=C/C[C@H](OC(=O)[C@@H](C)NC(=O)C2CCCCC2)[C@H](C)[C@@H](O)/C(C)=C\CCC2=CC(=O)C=C(NC(=O)C1)C2=O [Ansatrienin A] | 38.64 | 44.79 | 2.60 | 3.94 | 4.00 | -9.91 |  |
